Patent US20260199249A1, “SOLID ELACESTRANT DIHYDROCHLORIDE COMPOSITIONS, METHODS OF MAKING THE SAME, AND METHODS OF TREATMENT USING THE SAME” (BERLIN-CHEMIE AG, priority 2023, published 2026)
“Also recorded” adds a separate entry of the source. Structures can show the parent of a compound that is named as a salt.

What was measured:
[1] = Dissolution in media of pH 1.2, 2.0 (QC), 4.5 and 6.8 with f2 analysis; assay type: physicochemical; conditions: pH 6.8 (phosphate buffer); dihydrochloride
Procedure: Dissolution profiles for Formulation 2 at the target hardness (13.3 kP and 16.4 kP for 100 mg and 400 mg tablets, respectively), were generated using testing conditions that represented the physiological range of pH 1.2 (0.1 N HCl) to pH 6.8 (phosphate buffer), as well as in the QC medium (0.01 N HCl) and at pH 4.5 (acetate buffer). The dissolution profiles under these various conditions are shown in FIGS. 11A-D (100 mg tablets) and FIGS. 12A-D (400 mg tablets).
FIGS. 13A-D compare the dissolution profiles of the elacestrant dihydrochloride 100 mg drug product used in the Pivotal BE study under 4 different dissolution conditions. […] At the highest tested pH (pH 6.8) the solubility of the drug is so low that this test condition is not a reliable method for testing the dissolution of elacestrant dihydrochloride 100 mg tablets. The curves were compared using f2 analysis. […] Although the data at pH 6.8 also indicate the two curves are similar, the percent released was so low that this comparison was not of any value.

[2] = Human effective jejunal permeability; conditions: Caco-2, scaled from in vitro Caco2 data, read-out: Human effective jejunal permeability, initial value
Description: (§1) The physicochemical and biopharmaceutical properties for elacestrant dihydrochloride and its free base, elacestrant, were defined using a combination of in silico estimates from the ADMET Predictor® module that were based on the chemical structure, along with in vitro and in vivo data obtained from the literature and internal data. Table 5 summarizes the parameter values used for the elacestrant dihydrochloride […] pharmacokinetics (PBPK) model.

[3] = Human blood-to-plasma ratio; assay type: in vitro ADME; conditions: blood and plasma, RAD1901-111, read-out: Human blood-to-plasma ratio, initial value
Description: as §1

[4] = Compressibility study (strain rate sensitivity); assay type: physicochemical
Procedure: To investigate the behavior of elacestrant dihydrochloride under mechanical stress, a compressibility study was performed. […] Thus, deformation was expected to be affected by speed. Crushing strength was rather low at slow speed and decreased as speed increased due to elastic recovery. […] The insights and recommendations from this work led to careful selection of excipients to keep tablet strength high for tablets with drug loads above 25%.

[5] = Physicochemical properties (Log P, pKa, solubility vs. pH) for PBPK model
Description: as §1
The solubility vs. pH profile is solved using conventional methods known to those in the art and using the measure pKa values for elacestrant (Table 5). The pHmax for elacestrant is 4.3. These values were used to model in vitro drug product dissolution. The in vivo solubility values of elacestrant dihydrochloride are calculated as a function of the volume administered and the food volume, where relevant.

[6] = test system: ER-positive (ER+) HER2-negative (HER2−) breast cancer cells; conditions: at concentrations inducing degradation of ERα protein; cited from earlier work
[7] = test system: ER+HER2-breast cancer models; conditions: including models resistant to fulvestrant and CDK4/6 inhibitors and those harboring ESR1 mutations; cited from earlier work
[8] = Exposure-response (ER) analysis for PFS; assay type: in vivo, human; conditions: non-parametric and parametric survival analysis

Papp [2]	blood plasma ratio [3]	strain rate sensitivity [4]	logP [5]	solubility ([5]; 0.01 N HCl)	pKa ([5]; (A))	pKa ([5]; (B), first)	pKa ([5]; (B), second)	solubility ([5]; salt, pH = 4.3, read-out: Intrinsic solubility)	pHmax [5]	solubility ([5]; free base, pH = 10, read-out: Intrinsic solubility)	SMILES	solubility [1]	17β-estradiol mediated cell proliferation [6]	antitumor activity [7]	exposure-response for PFS (progression-free survival) [8]
32 ×10⁻⁶ cm/s	0.701	15.5%	5.56	feely soluble	12	6.39	7.74	39.4 mg/mL			CCNCCc1ccc(CN(CC)c2cc(OC)ccc2[C@@H]2CCc3cc(O)ccc3C2)cc1 [Elacestrant Dihydrochloride, (6R)-6-(2-(N-(4-(2-(ethylamino)ethyl)benzyl)-N-ethylamino)-4-methoxyphenyl)-5,6,7,8-tetrahydronaphthalen-2-ol dihydrochloride]	significantly lower; also recorded: so low			
									4.3	0.000115 mg/mL	CCNCCc1ccc(CN(CC)c2cc(OC)ccc2[C@@H]2CCc3cc(O)ccc3C2)cc1 [Elacestrant]		inhibited 17β-estradiol mediated cell proliferation	demonstrated in vitro and in vivo antitumor activity	no differences in PFS across the observed range of elacestrant exposures
